We go through eleven molecules from patent US12161722B2, “Bifunctional heterocyclic compound having BTK degradation function via ubiquitin proteasome pathway, and use thereof” (KOREA RESEARCH INSTITUTE OF CHEMICAL TECHNOLOGY, priority 2021, dated 2024).

One test deals with T1, WT BTK protein (Homo sapiens, UniProt Q06187).
T1 construct: measured for intracellular BTK protein levels by Western blotting; endogenous in cells; host or cells: TMD-8 or RAMOS cells
Nature of the test: BTK protein degradation assay (Western blotting), WT BTK. The format is cell-based. To be noted: concentration range accounting for 50% degradation of WT BTK protein, TMD-8 or RAMOS cells, 24 hours. The method, boiled down: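 TMD-8 cells (1×10^6 cells/mL) treated 24 h with compound serial dilutions, then lysed in RIPA. Equal protein loads analysed by Western blot for BTK with GAPDH/β-actin as loading controls; activity binned by concentration giving 50% WT BTK degradation.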
For orientation: Immunoblotting shows a protein as a band on a membrane.

The next test addresses T2, C481S BTK protein (Homo sapiens, UniProt Q06187, C481S).
T2 construct: expressed in transfected cells; host or cells: 293T BTK MUT (C481S) cells
The experiment in a line: BTK protein degradation assay (Western blotting), C481S BTK. In kind it is cell-based. To be noted: concentration range accounting for 50% degradation of C481S BTK protein, 293T BTK MUT (C481S) cells. On the procedure:
TMD-8, RAMOS, or 293T BTK MUT (C481S) cells were treated with the synthesized compounds and measured for intracellular BTK protein levels by Western blotting. The protocol of the experiment using TMD-8 cells is as follows.
The 12-well plates were treated as follows. A 10 mM stock was 1/10 diluted in series with DMSO ([…]) to form final concentrations of 10, 1, 0.1, 0.01, 0.001, and 0.0001 mM. The compounds with such concentrations were applied to cells, followed by harvesting the cells 24 hours later. For a negative control, a 1/10 dilution of DMSO in the medium (3 mL DMSO+27 mL medium) was used.
The 1-mL cell culture in each well was passed many times through a pipette and then transferred into a 1.5-mL microtube before centrifugation (500 g, 5 min, 4° C.). The supernatant was discarded and the cell pellet was washed with PBS. After centrifugation (500 g, 5 min, 4° C.) again, the supernatant was discarded and the cell pellet was taken.
A lysis buffer was prepared as follows. RIPA buffer (Biosesang, RC2038-050-00)+0.5 mM PMSF (SIGMA, P7626)+1×Protease/Phosphatase Inhibitor (Cell signaling, 5872S) was added in an amount […] per well and left for 30 minutes on ice (vortexing at 0 and 30 minutes) before sonication (5 cycles of pulse for 10 seconds and rest for 30 seconds, 70% amplification). The supernatant obtained by centrifugation (15000 g, 15 min, 4° C.) was transferred into a new microtube. Cells in each well of 96-well plates were 1/2 diluted with the RIPA buffer and incubated at 37° C. for 30 minutes with […] of a 50:1 mixture of BCA reagents A and B in BCA Protein Assay Kit (iNtRON, 21071). After being cooled for 10 minutes, the 96-well plates were measured for absorbance at 562 nm on the BioTek, SYNERGY H1 microplate reader. Samples were prepared by protein quantification based on the absorbance measurements and then boiled at 70° C. for 10 minutes. The sample buffer used in the case was prepared by mixing a NuPAGE or a Bolt 4× sample buffer (Invitrogen) and its 10× sample reducing agent depending on the gel to be used, and protein dilution was made in a RIPI buffer.
The samples were loaded in the same amount into a NuPAGE or Bolt Bis-tris 4-12% gradient gel and allowed to run therein (200 V, 35 minutes). The separated proteins were transferred onto a […] NC membrane, using Trans-blot Turbo (BIO-RAD) (1.3 A constant, 25V limit, 15 minutes). The membrane was blocked at room temperature for 1 hour with skim milk or Intercept Blocking Buffer (LI-COR, 927-60001):0.1% TBST=1:1. The membrane was incubated with Anti BTK Rabbit (1:1,000 in 5% skim milk/0.2% TBST, size: 77 kDa, Cell signaling Technology) at 4° C. overnight O/N or at room temperature for 2 hours and with Anti GAPDH Rabbit (1:10,000 in 5% BSA/0.2% TBST, size: 36 kDa, GENETEX) and Anti β-actin mouse (1:10,000 in 5% BSA/0.2% TBST, RT, size: 43 kDa, GENETEX) at room temperature for 1 or 3 hours. Then, the membrane was washed three times with 0.5% TBST for 5 minutes each time before incubation with the second antibody Anti-Rabbit IgG (1:5,000 in 5% Skim milk/TBST, CST), IRDye® 800CW Goat anti-Rabbit IgG Secondary Antibody (1:10,000 in 5% skim/TBST, RT 45 min), or IRDye® 680RD Goat anti-Mouse IgG Secondary Antibody (1:10,000 in 5% skim/TBST, RT 45 min) for 45 minutes at room temperature in a rocker. The membrane was washed five times with 0.5% TBST for 5 minutes in each time, followed by detection with LI-COR, Odyssey. In this regard, the detection proceeded, as it was, for house-keeping genes while using SuperSignal West Pico PLUS Chemiluminescent Substrate or SuperSignal West femto Maximum Sensitivity Substrate for BTK detection.
According to the concentration ranges of compounds accounting for 50% degradation of WT BTK protein and C481S BTK protein, the activities are expressed as +++(0.0001-0.01 μM), ++(0.01-1 μM), +(1-10 μM), −(>10 μM), and NT (not tested). […]

T1 sequence (Q06187 whole entry): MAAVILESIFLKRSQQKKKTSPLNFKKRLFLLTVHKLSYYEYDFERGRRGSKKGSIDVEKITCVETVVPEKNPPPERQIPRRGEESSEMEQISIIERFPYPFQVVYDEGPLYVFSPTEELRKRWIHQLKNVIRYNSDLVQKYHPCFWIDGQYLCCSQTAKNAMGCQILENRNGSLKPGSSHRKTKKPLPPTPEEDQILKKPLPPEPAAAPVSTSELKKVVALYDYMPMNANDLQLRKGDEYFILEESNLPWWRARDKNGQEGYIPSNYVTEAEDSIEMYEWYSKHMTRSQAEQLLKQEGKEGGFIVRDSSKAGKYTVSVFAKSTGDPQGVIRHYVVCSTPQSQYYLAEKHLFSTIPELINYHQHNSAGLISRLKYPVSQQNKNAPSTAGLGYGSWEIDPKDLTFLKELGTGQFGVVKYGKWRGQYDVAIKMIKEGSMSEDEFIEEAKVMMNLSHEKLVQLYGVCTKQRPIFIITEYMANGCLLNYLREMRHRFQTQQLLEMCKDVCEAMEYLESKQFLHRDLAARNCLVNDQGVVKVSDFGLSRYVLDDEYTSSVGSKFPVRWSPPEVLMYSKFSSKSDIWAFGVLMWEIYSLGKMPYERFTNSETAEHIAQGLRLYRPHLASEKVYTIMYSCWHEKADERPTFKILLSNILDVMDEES
T2 sequence (Q06187 whole entry C481S): as the sequence (Q06187 whole entry) above, with C481S counted along it

As for `Cc1cccc(C)c1Nc1nn(C)c2nc(Nc3ccc4c(c3)CN(C(=O)CCCCCNc3cccc5c3C(=O)N(C3CCC(=O)NC3=O)C5=O)CC4)ncc12` (stereo not shown) [Compound 1, 4-((6-(7-((3-((2,6-Dimethylphenyl)amino)-1-methyl-1H-pyrazolo[3,4-d]pyrimidin-6-yl)amino)-3,4-dihydroisoquinolin-2 (1H)-yl)-6-oxohexyl)amino)-2-(2,6-dioxopiperidin-3-yl)isoindoline-1,3-dione], the DC50 – broadly, the concentration at which degradation of the target reaches its halfway point – at WT BTK protein is 10 to 1000 nM; on C481S BTK protein it was greater than 10000 nM. As for `Cc1cccc(C)c1Nc1nn(C)c2nc(Nc3ccc4c(c3)CN(C(=O)COCCOCCNc3ccc5c(c3)C(=O)N(C3CCC(=O)NC3=O)C5=O)CC4)ncc12` (stereo not shown) [Compound 2, 5-((2-(2-(2-(7-((3-((2,6-Dimethylphenyl)amino)-1-methyl-1H-pyrazolo[3,4-d]pyrimidin-6-yl)amino)-3,4-dihydroisoquinolin-2 (1H)-yl)-2-oxoethoxy)ethoxy)ethyl)amino)-2-(2,6-dioxopiperidin-3-yl)isoindoline-1,3-dione], the DC50 at WT BTK protein was in the range of 0.1 to 10 nM; on C481S BTK protein, 10 to 1000 nM. On to `Cc1cccc(C)c1Nc1nn(C)c2nc(Nc3ccc4c(c3)CN(C(=O)COCCOCCNc3cccc5c3C(=O)N(C3CCC(=O)NC3=O)C5=O)CC4)ncc12` (stereo not shown) [Compound 3, 4-((2-(2-(2-(7-((3-((2,6-Dimethylphenyl)amino)-1-methyl-1H-pyrazolo[3,4-d]pyrimidin-6-yl)amino)-3,4-dihydroisoquinolin-2 (1H)-yl)-2-oxoethoxy)ethoxy)ethyl)amino)-2-(2,6-dioxopiperidin-3-yl)isoindoline-1,3-dione], for which the half-maximal degradation concentration (DC50) is 0.1 to 10 nM at WT BTK protein and 1000 to 10000 nM on C481S BTK protein. As for `Cc1cccc(C)c1Nc1nn(C)c2nc(Nc3ccc4c(c3)CN(C(=O)COCCOCCNC(=O)C3CCN(c5cccc6c5C(=O)N(C5CCC(=O)NC5=O)C6=O)CC3)CC4)ncc12` (stereo not shown) [Compound 4, N-(2-(2-(2-(7-((3-((2,6-Dimethylphenyl)amino)-1-methyl-1H-pyrazolo[3,4-d]pyrimidin-6-yl)amino)-3,4-dihydroisoquinolin-2 (1H)-yl)-2-oxoethoxy)ethoxy)ethyl)-1-(2-(2,6-dioxopiperidin-3-yl)-1,3-dioxoisoindolin-4-yl)piperidine-4-carboxamide], the DC50 at WT BTK protein lay in the range of 10 to 1000 nM; on C481S BTK protein it was 1000 to 10000 nM. Regarding `Cc1cccc(C)c1Nc1nn(C)c2nc(Nc3ccc4c(c3)CN(C(=O)COCCOCCOCCOCCNC(=O)C3CCN(c5cccc6c5C(=O)N(C5CCC(=O)NC5=O)C6=O)CC3)CC4)ncc12` (stereo not shown) [Compound 5, N-(14-(7-((3-((2,6-Dimethylphenyl)amino)-1-methyl-1H-pyrazolo[3,4-d]pyrimidin-6-yl)amino)-3,4-dihydroisoquinolin-2 (1H)-yl)-14-oxo-3,6,9,12-tetraoxatetradecyl)-1-(2-(2,6-dioxopiperidin-3-yl)-1,3-dioxoisoindolin-4-yl)piperidine-4-carboxamide], the DC50 on WT BTK protein and on C481S BTK protein was 10 to 1000 nM throughout. For `Cc1cccc(C)c1Nc1nn(C)c2nc(Nc3ccc(C4CCN(C(=O)/C(C#N)=C/C5CCN(C(=O)CNc6ccc7c(c6)C(=O)N(C6CCC(=O)NC6=O)C7=O)CC5)CC4)cc3)ncc12` (stereo not shown) [Compound 261, (E)-2-(4-(4-((3-((2,6-Dimethylphenyl)amino)-1-methyl-1H-pyrazolo[3,4-d]pyrimidin-6-yl)amino)phenyl)piperidine-1-carbonyl)-3-(1-((2-(2,6-dioxopiperidin-3-yl)-1,3-dioxoisoindolin-5-yl)glycyl)piperidin-4-yl)acrylonitrile], the DC50 on WT BTK protein lay within 0.1 to 10 nM. Turning to `Cc1cccc(C)c1Nc1nn(C)c2nc(Nc3ccc(C4CCN(C(=O)C5CCN(c6ccc7c(c6)n(C)c(=O)n7C6CCC(=O)NC6=O)CC5)CC4)cc3)ncc12` (stereo not shown) [Compound 262, 3-(5-(4-(4-(4-((3-((2,6-Dimethylphenyl)amino)-1-methyl-1H-pyrazolo[3,4-d]pyrimidin-6-yl)amino)phenyl)piperidine-1-carbonyl)piperidin-1-yl)-3-methyl-2-oxo-2,3-dihydro-1H-benzo[d]imidazol-1-yl)piperidin-2,6-one], on WT BTK protein, the DC50 was 0.1 to 10 nM. As for `Cc1cccc(C)c1Nc1nn(C)c2nc(Nc3ccc(F)c(C4=CCN(C(=O)C5CN(c6ccc7c(c6)C(=O)N(C6CCC(=O)NC6=O)C7=O)C5)CC4)c3)ncc12` (stereo not shown) [Compound 263, 5-(3-(4-(5-((3-((2,6-Dimethylphenyl)amino)-1-methyl-1H-pyrazolo[3,4-d]pyrimidin-6-yl)amino)-2-fluorophenyl)-1,2,3,6-tetrahydropyridine-1-carbonyl)azetidin-1-yl)-2-(2,6-dioxopiperidin-3-yl)isoindoline-1,3-dione], the 50% degradation concentration (DC50) on WT BTK protein was in the range of 0.1 to 10 nM.

`Cc1cccc(C)c1Nc1nn(C)c2nc(Nc3ccc4c(c3)CN(C(=O)C3CCN(c5ccc6c(c5)n(C)c(=O)n6C5CCC(=O)NC5=O)CC3)CC4)ncc12` (stereo not shown) [Compound 264, 3-(5-(4-(7-((3-((2,6-Dimethylphenyl)amino)-1-methyl-1H-pyrazolo[3,4-d]pyrimidin-6-yl)amino)-1,2,3,4-tetrahydroisoquinoline-2-carbonyl)piperidin-1-yl)-3-methyl-2-oxo-2,3-dihydro-1H-benzo[d]imidazol-1-yl)piperidin-2,6-one]: the DC50 at WT BTK protein lay in the range of 0.1 to 10 nM. With `Cc1cccc(C)c1Nc1nn(C)c2nc(Nc3ccc(N4CCN(CC5CCN(c6ccc7c(c6)C(=O)N(C6CCC(=O)NC6=O)C7=O)CC5)CC4)nn3)ncc12` (stereo not shown) [Compound 268, 5-(4-((4-(6-((3-((2,6-dimethylphenyl)amino)-1-methyl-1H-pyrazolo[3,4-d]pyrimidin-6-yl)amino)pyridazin-3-yl)piperazin-1-yl)methyl)piperidin-1-yl)-2-(2,6-dioxopiperidin-3-yl)isoindoline-1,3-dione], the half-maximal degradation concentration (DC50) at WT BTK protein was 0.1 to 10 nM.

As to `Cc1cccc(C)c1Nc1nn(C)c2nc(Nc3ccc(C4CCN(CC5CCN(c6cc7c(cc6F)C(=O)N(C6CCC(=O)NC6=O)C7)CC5)CC4)cc3)ncc12` (stereo not shown) [Compound 272, 3-(5-(4-((4-(4-((3-((2,6-dimethylphenyl)amino)-1-methyl-1H-pyrazolo[3,4-d]pyrimidin-6-yl)amino)phenyl)piperidin-1-yl)methyl)piperidin-1-yl)-6-fluoro-1-oxoisoindolin-2-yl)piperidin-2,6-one], the DC50 on WT BTK protein lay in the range of 0.1 to 10 nM.
